Reference: US5859029A, “Heterocyclic compounds method of preparing them and pharmeutical compositions in which they are present” (Sanofi, priority 1995, dated 1999)
Where a name gives a salt, the structure may show the parent alone.

Target: T1, NK1 receptors of IM9 human lymphoblasts (Homo sapiens, UniProt P25103)
T1 construct: NK1 receptors of IM9 human lymphoblasts; endogenous in cells; host or cells: IM9 human lymphoblasts
Test: Binding of [^125 I]BH-SP (substance P) to the NK1 receptors of human lymphoblasts
Details: read-out: inhibition constant Ki (binding of substance P to the human lymphoblast NK1 receptor)
Description: In ligand binding studies, the inhibition constant Ki is defined by the Cheng-Prusoff relationship (in Receptor Binding in Drug Research, eds. R. A. O'Brien, Marcel Dekker, New York, 1986): [formula] [L]: concentration of the ligand, Kd: dissociation constant of the ligand,
IC50 : concentration which inhibits the ligand binding by 50%.
The affinity of the compounds of formula (I) for the tachykinin receptors was evaluated in vitro by several biochemical tests using radioligands:
1°) The binding of [^125 I]BH-SP (substance P labeled with iodine-125 using Bolton-Hunter's reagent) to the NK1 receptors of human lymphoblasts.
The tests were performed according to X. Emonds-Alt et al. (Eur. J. Pharmacol., 1993, 2, 403-413).

T1 sequence (P25103 whole entry): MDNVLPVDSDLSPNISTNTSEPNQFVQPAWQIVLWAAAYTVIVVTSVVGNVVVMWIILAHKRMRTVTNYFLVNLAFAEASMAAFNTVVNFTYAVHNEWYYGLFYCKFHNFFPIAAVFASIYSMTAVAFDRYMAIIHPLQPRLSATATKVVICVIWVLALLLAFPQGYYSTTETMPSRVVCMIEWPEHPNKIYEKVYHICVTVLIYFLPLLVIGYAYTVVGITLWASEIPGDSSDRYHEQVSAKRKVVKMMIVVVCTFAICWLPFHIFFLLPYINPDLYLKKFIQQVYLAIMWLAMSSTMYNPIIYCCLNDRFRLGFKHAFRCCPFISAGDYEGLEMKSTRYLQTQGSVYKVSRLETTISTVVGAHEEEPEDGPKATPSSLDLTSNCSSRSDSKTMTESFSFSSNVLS

| SMILES | Ki [nM] |
| --- | --- |
| O=C1CC(CCN2CCC(O)(c3ccccc3)CC2)(c2ccc(Cl)c(Cl)c2)CCN1Cc1ccccc1 (stereo not shown) [1-benzyl-4-(3,4-dichlorophenyl)-4-[2-(4-hydroxy-4-phenylpiperid-1-yl)ethyl]piperid-2-one hydrochloride] | ~1000 |
| O=C1CCC(CCN2CCC(Cc3ccccc3)CC2)(c2ccc(Cl)c(Cl)c2)CN1Cc1ccccc1 (stereo not shown) [5-[2-(4-benzyl-1-piperid-1-yl)ethyl]-5-(3,4-dichlorophenyl)-1-benzylpiperid-2-one hydrochloride] | ~1000 |
| C[N+]1(CCC2(c3ccc(Cl)c(Cl)c3)CCC(=O)N(Cc3cc(C(F)(F)F)cc(C(F)(F)F)c3)C2)CCC(c2ccccc2)CC1 (stereo not shown) [Example 7, 1-Methyl-1-[2-[1-[3,5-bis(trifluoromethyl)benzyl]-5-(3,4-dichlorophenyl)-2-oxopiperid-5-yl]-ethyl]-4-phenylpiperidinium iodide] | ~0.1 |
| O=C1CC(CCN2CCC(O)(c3ccccc3)CC2)(c2ccc(Cl)c(Cl)c2)CN1Cc1cc(C(F)(F)F)cc(C(F)(F)F)c1 (stereo not shown) [Example 10, 4-(3,4-Dichlorophenyl)-4-[2-(4-hydroxy-4-phenylpiperid-1-yl)ethyl]-1-[3,5-bis(trifluoromethyl)benzyl]pyrrolidin-2-one hydrochloride] | ~0.1 |
